From US9717708B1, “Process for preparing ertapenem-containing lyophilized formulation” (DAEWOONG PHARMACEUTICAL CO., LTD., priority 2014, dated 2017) come the findings set out here.

Data set [1] is described as follows: Purity (HPLC) before and after lyophilization and during storage, lyophilized formulation containing meropenem trihydrate. The format is physicochemical. The note with it: lyophilized formulations containing meropenem. The protocol:
(§1) Hydroxypropyl β-cyclodextrin (HP-β-CD) [MS=0.65, 2.76 g (1.0 eq.)] was dissolved in distilled water (16 mL). After cooling the solution to 0˜5° C., 10 portions of ertapenem monosodium salt (1 g in total, each portion having the same amount) were sequentially added to the solution for 60 minutes, while maintaining pH 7.8 with a 2N NaOH solution. The resulting solution was sterile-filtered at 0˜5° C., filled in a vial, and then lyophilized as follows: The filled vial was located on the shelf of a lyophilizer pre-cooled to −40° C. and then cooled for 3 hours. Vacuum (80 mTorr) was applied to the shelf, which was then heated to −20° C. at the rate of 0.5° C./min. The shelf was maintained under the conditions of −20° C. and 80 mTorr for 48 hours. The shelf was heated to 10° C. at the rate of 0.1° C./min and then to 40° C. at the rate of 0.5° C./min. […]
(§2) We evaluated whether or not hydroxypropyl β-cyclodextrin can also function both as a cryoprotective agent and as a stabilizing agent in the lyophilized formulations containing carbapenem antibiotics other than ertapenem. […] The purities before the lyophilization, the purities right after the lyophilization, and the purities of the lyophilized formulations which were respectively stored at low temperature (−20° C.), at room temperature, and under the accelerated (40° C., RH75%) condition for 4 weeks were respectively measured with a HPLC. […]

The nature of data set [2]: Purity (HPLC) before and after lyophilization and during storage, lyophilized formulation containing doripenem monohydrate. Type of data set: physicochemical. The settings on record: lyophilized formulations containing doripenem. The protocol:
as §1, §2

Structures are written as SMILES.

As for `C[C@@H](O)[C@H]1C(=O)N2C(C(=O)O)=C(S[C@@H]3CN[C@H](C(=O)N(C)C)C3)[C@H](C)[C@H]12` [meropenem, meropenem trihydrate], the “function of hydroxypropyl β-cyclodextrin as cryoprotective and stabilizing agent” value in data set [1] is “did not function as a cryoprotective agent nor as a stabilizing agent”. `C[C@@H](O)[C@H]1C(=O)N2C(C(=O)O)=C(S[C@@H]3CN[C@H](CNS(N)(=O)=O)C3)[C@H](C)[C@H]12` [doripenem, doripenem monohydrate]: the “function of hydroxypropyl β-cyclodextrin as cryoprotective and stabilizing agent” value in data set [2] is “did not function as a cryoprotective agent nor as a stabilizing agent”.
